The record followed here is patent publication US20160320384A1, “METHODS FOR ASSAYING IMMUNOLOGICAL COMPETENCE” (YEDA RESEARCH AND DEVELOPMENT CO. LTD., priority 2013, published 2016).

The subject of one series is serum IgG antibodies. The experiment in a line: Serum IgG antibody binding to oligonucleotides on antigen microarray. Set-up: species or system human. To be noted: for IgG binding compared to G17: individual subjects (FIG. 4); for IgG reactivities compared to T17: individual subjects (FIGS. 5A-B).
A further series has as its system serum IgM antibodies. The experiment in a line: Serum IgM antibody binding to oligonucleotides on antigen microarray. To be noted: for IgM binding compared to G17: individual subjects (FIG. 4); for IgM reactivities compared to T17: individual subjects (FIGS. 5A-B). Set-up: species or system human.
The subject of another series is poly-G autoantibody. The experiment in a line: Poly-G autoantibody levels in kidney transplanted patients at baseline and 24 weeks after transplantation and immunosuppression (antigen microarray). Type of series: in vivo, human. Set-up: reduction in G14 IgM autoantibody intensity / reduction in G14 IgG autoantibody intensity / reduction in G40 IgM autoantibody intensity: concentration or dose not given beside the values.

The mark [1] stands for this setting: median intensity, 24 weeks after Tx vs baseline.
[2] abbreviates: both studies combined: 60 SLE, 26 SSc, 18 PV patients, 31 healthy subjects.
Where [3] appears, read: healthy subjects, SSc and PV patients (FIG. 1).

Procedure for poly-G autoantibody: (§1) Alternatively, oligonucleotides and double and single stranded DNA in various chain lengths were spotted on epoxyhexyltriethoxysilane (EHTES) activated slides. The microarrays were then blocked for 1 hour at room temperature with 1% casein. Test serum samples in 1% casein blocking buffer (1:20 dilution) were incubated under a coverslip for 1 hour at 37°. The arrays were then washed and incubated for 1 hour at 37° with a 1:500 dilution of two detection antibodies, mixed together: a goat anti-human IgG Cy3-conjugated antibody, and a goat anti-human IgM AF647-conjugated antibody (both purchased from Jackson ImmunoResearch Laboratories Inc., West Grove, Pa.). Image acquisition was performed by laser at two wavelengths 530 nm and 630 nm (Agilent Technologies, Santa Clara, Calif.) and the results were analyzed using Genepix Pro 7.0 software with default settings. The quantitative range of signal intensity of binding to each antigen spot was 0-65,000; this range of detection made it possible to obtain reliable data at a 1:20 dilution of test samples.
Each spot's intensity is represented by its pixels' mean after subtraction of its local background median, followed by Log 2 transform. Negative spots (following background subtraction) are imputed with background-like intensity. The foreground and background intensities of multiple spots of each antigen were averaged, and the difference between the foreground and the background was calculated. The resulting value was taken as the antigen reactivity of the antibodies binding to that spotted antigen.
Each oligonucleotide was diluted using 7 different diluents in order to ensure the printing performance of each antigen.
Belatacept dosing was 10 mg/kg on days 1 and 5, then on weeks 2, 4, 6, 8, 10 and 12, 10 mg/kg monthly at month 4, 5 and 6, and then 5 mg/kg monthly thereafter. CyA dosing was 4-10 mg/kg, adjusted to maintain blood level (by standard TDM) of 150-300 ng/ml, 0-30 days, then at 100-200 ng/ml thereafter. All patients received basiliximab (IL-2 receptor MAb blocking antibody), mycophenolate mofetil 2 g/day, divided into two doses 12 hours apart, and corticosteroids, 500 mg IV Day 0, tapered to 2.5 mg po by Day 15.
Procedure for serum IgG antibodies: (§2) In a follow-up study, sera samples obtained from 23 healthy subjects, 24 SSc patients, and 49 SLE patients were tested using an antigen microarray that included 58 single-stranded oligonucleotides. Overall, 60 SLE patients, 26 SSc patients, 18 PV patients, and 31 healthy subjects were tested.
(§3) In a follow-up study, 58 different oligonucleotides, as well as double and single stranded DNA, in various lengths (104 different preparations overall), were spotted on epoxy-activated glass substrates (ArrayIt SuperEpoxi microarray substrate slides, Sunnyvale, Calif.). […] The microarrays were then blocked for 1 hour at 37° with 1% bovine serum albumin. Test serum samples in 1% Bovine Serum Albumin (BSA) blocking buffer (1:10 dilution) were incubated under a coverslip for 1 hour at 37°. The arrays were then washed and incubated for 1 hour at 37° with a 1:500 dilution of two detection antibodies, mixed together: a goat anti-human IgG Cy3-conjugated antibody, and a goat anti-human IgM Cy5-conjugated antibody (both purchased from Jackson ImmunoResearch Laboratories Inc., West Grove, Pa.). Image acquisition was performed by laser (Agilent Technologies, Santa Clara, Calif.) and the results were analyzed using Quantarray software (Packard BioChip Technologies, Billerica, Mass.). The quantitative range of signal intensity of binding to each antigen spot was 0-65,000; this range of detection made it possible to obtain reliable data at a 1:10 dilution of test serum samples.
as §1
(§4) Each spot's intensity is represented by its pixels' mean after subtraction of its local background median, followed by Log 2 transform. Negative spots (following background subtraction) are imputed with background-like intensity. The foreground and background intensities of multiple spots of each antigen were averaged, and the difference between the foreground and the background was calculated.
Procedure for serum IgM antibodies: as §2, §3, §1, §4

In the case of “G16T1: G16 with a single T added at the 3′ end (GGGGGGGGGGGGGGGGT; listed as DNA, chemistry not fully specified)”, in the series with serum IgG antibodies, the “IgG binding compared to G17” value was “considerably less than the binding to G17”. Also, the “IgM binding compared to G17” value with serum IgM antibodies is “considerably less than the binding to G17”.
As to “TGGGGGGGGGGGGGGGG (listed as DNA, chemistry not given here) [T1G16]”, in the series on serum IgG antibodies, the “IgG binding compared to G17” value is “essentially equal to the binding to the G17”. Besides, in the series with serum IgM antibodies, the “IgM binding compared to G17” value was “essentially equal to the binding to the G17”.
With “CGCGCGCGCGCGCGCGCGCG (listed as DNA, chemistry not given here) [(CG)10]”, in the series with serum IgG antibodies (group of SLE patients, mainly positive for anti-dsDNA (FIG. 6)), the IgG reactivities entry is “high IgG reactivities”. Moreover, in the series with serum IgM antibodies (healthy subjects, SSc and SLE patients (FIG. 6)), the IgM reactivities result was “high in all but one of the healthy subjects, in all of the SSc patients and in most of the SLE patients”.
In the case of belatacept, the “patients in whom the reduction in poly-G autoantibody intensity was observed” value with poly-G autoantibody (6 months post immunosuppression administration, 6 patients per group) was “observed in all belatacept patients”. Moreover, the “reduction in autoantibodies median intensity, combined poly-G reactivity” value in the series on poly-G autoantibody (FIGS. 12A-B, 24 weeks after Tx vs baseline, belatacept vs CsA) is given as “greater reduction”. Moreover, the “Antibody level 24 weeks after transplantation and drug administration compared to baseline (%, median intensity): IgG levels against G14 (SEQ ID NO: 41)” value in the series with poly-G autoantibody (kidney transplanted patients, serum, 24 weeks after Tx vs baseline, IgG, G14) is reported as 53%. The “Antibody level 24 weeks after transplantation and drug administration compared to baseline (%, median intensity): IgG levels against G17 (SEQ ID NO: 36)” value in the series on poly-G autoantibody (kidney transplanted patients, serum, 24 weeks after Tx vs baseline, IgG, G17) worked out at 70%. The “Antibody level 24 weeks after transplantation and drug administration compared to baseline (%, median intensity): IgG levels against G20 (SEQ ID NO: 43)” value in the series with poly-G autoantibody (kidney transplanted patients, serum, 24 weeks after Tx vs baseline, IgG, G20) was found to be 58%. Moreover, the “Antibody level 24 weeks after transplantation and drug administration compared to baseline (%, median intensity): IgG levels against G30 (SEQ ID NO: 65)” value with poly-G autoantibody (kidney transplanted patients, serum, 24 weeks after Tx vs baseline, IgG, G30) stood at 67%. The “Antibody level 24 weeks after transplantation and drug administration compared to baseline (%, median intensity): IgG levels against G40 (SEQ ID NO: 66)” value in the series with poly-G autoantibody (kidney transplanted patients, serum, 24 weeks after Tx vs baseline, IgG, G40) worked out at 81%. Further, the “Antibody level 24 weeks after transplantation and drug administration compared to baseline (%, median intensity): IgM levels against G14 (SEQ ID NO: 41)” value with poly-G autoantibody (kidney transplanted patients, serum, 24 weeks after Tx vs baseline, IgM, G14) is reported as 45%. In addition, the “Antibody level 24 weeks after transplantation and drug administration compared to baseline (%, median intensity): IgM levels against G17 (SEQ ID NO: 36)” value in the series with poly-G autoantibody (kidney transplanted patients, serum, 24 weeks after Tx vs baseline, IgM, G17) is on record as 63%. Further, in the series with poly-G autoantibody (kidney transplanted patients, serum, 24 weeks after Tx vs baseline, IgM, G20), the “Antibody level 24 weeks after transplantation and drug administration compared to baseline (%, median intensity): IgM levels against G20 (SEQ ID NO: 43)” value was determined as 63%. Moreover, the “Antibody level 24 weeks after transplantation and drug administration compared to baseline (%, median intensity): IgM levels against G30 (SEQ ID NO: 65)” value in the series with poly-G autoantibody (kidney transplanted patients, serum, 24 weeks after Tx vs baseline, IgM, G30) is recorded as 59%. Further, the “Antibody level 24 weeks after transplantation and drug administration compared to baseline (%, median intensity): IgM levels against G40 (SEQ ID NO: 66)” value in the series with poly-G autoantibody (kidney transplanted patients, serum, 24 weeks after Tx vs baseline, IgM, G40) was found to be 72%. Moreover, in the series on poly-G autoantibody (setting [1]), the “reduction in G14 IgG autoantibody intensity” value is 47%, the “reduction in G14 IgM autoantibody intensity” value is 55%, the “reduction in G17 IgG autoantibody intensity” value is listed as 30% and the “reduction in G17 IgM autoantibody intensity (FIG. 8A)” value is 37%. In the series on poly-G autoantibody (setting [1]), the “reduction in G20 IgG autoantibody intensity” value amounted to 42%, the “reduction in G20 IgM autoantibody intensity” value amounted to 37%, the “reduction in G30 IgG autoantibody intensity” value is given as 33% and the “reduction in G30 IgM autoantibody intensity” value is recorded as 41%. In the series on poly-G autoantibody (setting [1]), the “reduction in G40 IgG autoantibody intensity” value amounted to 19% and the “reduction in G40 IgM autoantibody intensity” value was 28%.
With “T16G1: poly-T chain with a single G at the 3′ end (DNA TTTTTTTTTTTTTTTTG; listed as DNA, chemistry not fully specified)”, the “IgG reactivities compared to T17” value in the series on serum IgG antibodies was “increased in almost all the subjects”. Besides, the “IgM reactivities compared to T17” value in the series with serum IgM antibodies is “increased in almost all the subjects”.
As for “T16G2: modified T17 oligonucleotide (DNA TTTTTTTTTTTTTTTTGG; listed as DNA, chemistry not fully specified)”, the “IgG reactivities compared to T17” value in the series on serum IgG antibodies is listed as “also increased compared to T17”. In the series on serum IgM antibodies, the “IgM reactivities compared to T17” value was “also increased compared to T17”.
Regarding “G1T16: poly-T chain with a single G at the 5′ end (DNA GTTTTTTTTTTTTTTTT; listed as DNA, chemistry not fully specified)”, the “IgG reactivities compared to T17” value with serum IgG antibodies is listed as “increased in almost all the subjects”. Moreover, the “IgM reactivities compared to T17” value with serum IgM antibodies is “increased in almost all the subjects”.
With “T20: 20-mer thymine homo-nucleotide (DNA TTTTTTTTTTTTTTTTTTTT)”, the values for the IgG reactivities entry with serum IgG antibodies (setting [2]) and in the series with serum IgG antibodies (setting [3]) were “relatively low reactivities” and “very low or no reactivities”, respectively.
Taken in the same sequence, the figures for “A20: 20-mer adenine homo-nucleotide (AAAAAAAAAAAAAAAAAAAA; listed as DNA, chemistry not fully specified)” were “relatively low reactivities” and “very low or no reactivities”.
For “G17: poly-guanine oligonucleotide antigen, 17 guanines (GGGGGGGGGGGGGGGGG; listed as DNA, chemistry not fully specified)”, the “mean IgG reactivities as a function of chain length” value with serum IgG antibodies (healthy, SSc, SLE dsDNA-negative and -positive groups (FIG. 3)) is “fell significantly”.
As for “G2T16: modified T17 oligonucleotide (DNA GGTTTTTTTTTTTTTTTT; listed as DNA, chemistry not fully specified)”, the “IgG reactivities compared to T17” value in the series with serum IgG antibodies is “also increased compared to T17”. In addition, the “IgM reactivities compared to T17” value in the series on serum IgM antibodies is recorded as “also increased compared to T17”.
